# Values joined by “and” are separate entries in the source; they are usually repeats but may differ in a detail not shown here. Identical values can stand only once.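 Assay format: 96-well plates, 48-hour exposure. GI50 marks 50% less growth. Definition used: TGI = concentration required for complete inhibition of growth.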
# Key:
# Test in all cases: NCI anticancer screen, dose series, 48 h
# A498 renal = system: A498 renal
# ACHN renal = system: ACHN renal
# COLO 205 colon = system: COLO 205 colon
# HCT-116 colon = system: HCT-116 colon
# HL-60(TB) leukemia = system: HL-60(TB) leukemia
# MALME-3M melanoma = system: MALME-3M melanoma
# NCI-H23 lung = system: NCI-H23 lung
# NCI-H522 lung = system: NCI-H522 lung
# OVCAR-8 ovarian = system: OVCAR-8 ovarian
# SK-MEL-28 melanoma = system: SK-MEL-28 melanoma
SMILES,GI50 (A498 renal),TGI (A498 renal),GI50 (ACHN renal),TGI (ACHN renal),GI50 (COLO 205 colon),TGI (COLO 205 colon),GI50 (HCT-116 colon),TGI (HCT-116 colon),GI50 (HL-60(TB) leukemia),TGI (HL-60(TB) leukemia),GI50 (MALME-3M melanoma),TGI (MALME-3M melanoma),GI50 (NCI-H23 lung),TGI (NCI-H23 lung),GI50 (NCI-H522 lung),TGI (NCI-H522 lung),GI50 (OVCAR-8 ovarian),TGI (OVCAR-8 ovarian),GI50 (SK-MEL-28 melanoma),TGI (SK-MEL-28 melanoma)
CC(C)CCN[C@@H]1CCc2cc(O)c(N3CC(=O)NS3(=O)=O)c(F)c2C1,> 100 µM,> 100 µM,> 100 µM,> 100 µM,> 100 µM,> 100 µM,> 100 µM,> 100 µM,> 100 µM,> 100 µM,> 100 µM,> 100 µM,> 100 µM,> 100 µM,> 100 µM,> 100 µM,> 100 µM,> 100 µM,> 100 µM,> 100 µM
CNC(=O)OCC1C2=C(C(=O)C(C)=C(N)C2=O)N2CC3C(N3C)C12OC (centres undefined),–,34.2 µM,–,26.7 µM,–,31.7 µM,–,30.4 µM,–,21.1 µM,–,18.5 µM,–,16.3 µM,–,19.2 µM,–,> 100 µM,–,> 100 µM
CC(C)COC(=O)c1ccc2[nH]c(O)c(C=Nc3ccc(S(N)(=O)=O)cc3)c2c1,2.28 µM,5.9 µM,0.885 µM,5.8 µM,0.532 µM,1.91 µM,0.613 µM,3 µM,0.68 µM,2.38 µM,4.97 µM,10.9 µM,1.33 µM,5.11 µM,4.03 µM,8.5 µM,1.04 µM,4.62 µM,1.69 µM,4.75 µM
O=S(=O)(C/C(=N\O)c1ccccc1)c1ccccc1,–,> 100 µM,–,> 100 µM,–,> 100 µM,–,> 100 µM,–,> 100 µM,–,> 100 µM,–,> 100 µM,–,> 100 µM,–,> 100 µM,–,> 100 µM
O=C1c2nc3n(c2C(=O)c2c1nc1n2CCC1)CCC3,–,29.6 µM,–,23.9 µM,4.13 µM,18.5 µM,4.29 µM,9.22 µM,–,> 36.6 µM,2 µM,3.54 µM and 2.17 µM,3.08 µM,7.09 µM,–,19.5 µM,7.87 µM,22.5 µM,–,31.3 µM
Cc1ccccc1-n1c(C)nc(-c2ccccc2)cc1=O,–,> 100 µM,–,> 100 µM,–,> 100 µM,–,> 100 µM,–,> 100 µM,–,> 100 µM,–,> 100 µM,–,> 100 µM,–,> 100 µM,–,> 100 µM
CN(C)CCN1C(=O)c2cccc3cccc(c23)C1=O,13.4 µM,> 25 µM,8.29 µM,> 25 µM,7.04 µM,> 25 µM,9.57 µM,> 25 µM,6.82 µM,> 25 µM,17.6 µM,> 25 µM,> 25 µM,> 25 µM,15.1 µM,> 25 µM,13.2 µM,> 25 µM,> 25 µM,> 25 µM
COC1=C2CC(C)CC(OC)C(O)C(C)/C=C(\C)C(OC(N)=O)C(OC)/C=C\C=C(/C)C(=O)NC(=C(/C=N/N3CCCCC3)C1=O)C2=O (centres undefined),–,63.8 µM,–,28.8 µM,–,8.25 µM,–,9.48 µM,–,4.32 µM,–,28.7 µM,–,35.3 µM,–,7.87 µM,–,16.6 µM,–,37 µM
COc1ccc2nc(NC(=O)C(=O)C(C#N)c3ccc(Cl)c(Cl)c3)sc2c1 (centres undefined),–,> 100 µM,–,> 100 µM,–,> 100 µM,–,> 100 µM,–,> 100 µM,–,> 100 µM,–,> 100 µM,–,> 100 µM,–,> 100 µM,–,> 100 µM
O=C(NS(=O)(=O)c1ccccc1)C(Cc1ccccc1)C(Cc1ccccc1)C(=O)NS(=O)(=O)c1ccccc1 (centres undefined),–,> 100 µM,–,> 100 µM,–,> 100 µM,–,> 100 µM,–,> 100 µM,–,> 100 µM,–,> 100 µM,–,> 100 µM,–,> 100 µM,–,> 100 µM
O=C(/C=C1/Nc2ccc([N+](=O)[O-])cc2NC1O)c1cccc([N+](=O)[O-])c1 (centres undefined),–,> 100 µM,–,> 100 µM,–,> 100 µM,–,> 100 µM,–,> 100 µM,–,> 100 µM,–,> 100 µM,–,> 100 µM,–,48.7 µM,–,> 100 µM
CCC(Oc1ccc(OC)c2ccccc(=O)c12)C(=O)O (centres undefined),–,> 100 µM,–,> 100 µM,–,> 100 µM,–,> 100 µM,–,> 100 µM,–,> 100 µM,–,> 100 µM,–,> 100 µM,–,> 100 µM,–,> 100 µM
C=C1[C@@H]([C@@]2(C)C=CC(=O)C(C)(C)[C@@H]2CC(=O)OC)CC[C@@]2(C)C(c3ccoc3)OC(=O)[C@H]3O[C@]132 (some centres undefined),–,> 100 µM,–,> 100 µM,–,> 100 µM,–,> 100 µM,–,> 100 µM,–,> 100 µM,–,> 100 µM,–,> 100 µM,–,> 100 µM,–,> 100 µM
C=C1c2c(Cl)ccc(O)c2C(O)=C2C(=O)[C@]3(O)C(O)=C(C(N)=O)C(=O)[C@@H](N(C)C)[C@@H]3[C@@H](O)[C@H]12,0.663 µM,4.09 µM,1.37 µM,> 50 µM,1.11 µM,3.02 µM,0.97 µM,3.22 µM,1.22 µM,3.57 µM,1.15 µM,3.45 µM,1.08 µM,4.14 µM,1.01 µM,3.06 µM,1.32 µM,8.12 µM,1.08 µM,4.45 µM
Clc1nc(Cl)c2ncn(Cc3ccc(Cn4cnc5c(Cl)nc(Cl)nc54)cc3)c2n1,7.48 µM,50.2 µM,5.16 µM,20.4 µM,> 100 µM,> 100 µM,0.852 µM,16.2 µM,0.0475 µM,4.4 µM,5.62 µM,29.3 µM,2.02 µM,22.8 µM,5.65 µM,25 µM,10.4 µM,25 µM,–,28.3 µM
Cc1cccc(Nc2cnc(N)nc2N)c1,–,> 100 µM,–,> 100 µM,–,> 100 µM,–,> 100 µM,–,> 100 µM,–,> 100 µM,–,> 100 µM,–,> 100 µM,–,> 100 µM,–,> 100 µM
O=C(NO)c1ccc(O)c(O)c1,–,> 100 µM,–,> 100 µM,–,> 100 µM,–,> 100 µM,–,56 µM,–,> 100 µM,–,> 100 µM,–,> 100 µM,–,> 100 µM,–,> 100 µM

# Reference: PubChem BioAssay (NCI)
